# Activity calls are given as the source filed them. The calls are words filed in the database; no cut-off is given here.
# Key:
# [1] = Antiproliferative activity against human L02 cells assessed as inhibition of cell proliferation at 1 uM incubated for 72 hrs by SRB assay relative to control; type: toxicity, cell-based
# MIA PaCa-2 [2] = assay: Antiproliferative activity against human MIA PaCa-2 cells assessed as inhibition of cell proliferation at 1 uM incubated for 72 hrs by SRB assay relative to control; type: functional
# CFPAC-1 [3] = assay: Antiproliferative activity against human CFPAC-1 cells assessed as inhibition of cell proliferation at 1 uM incubated for 72 hrs by SRB assay relative to control; type: functional
# PaTu 8988t [4] = assay: Antiproliferative activity against human PaTu 8988t cells assessed as inhibition of cell proliferation at 1 uM incubated for 72 hrs by SRB assay relative to control; type: functional
# Panc02 [5] = assay: Antiproliferative activity against mouse Panc02 cells assessed as inhibition of cell proliferation at 1 uM incubated for 72 hrs by SRB assay relative to control; type: functional
# [6] = Antiproliferative activity against human L02 cells assessed as inhibition of cell proliferation incubated for 72 hrs by SRB assay; type: toxicity, cell-based
# MIA PaCa-2 [7] = assay: Antiproliferative activity against human MIA PaCa-2 cells assessed as inhibition of cell proliferation incubated for 72 hrs by SRB assay; type: functional, cell-based; details: MIA PaCa-2, 72 h
# CFPAC-1 [8] = assay: Antiproliferative activity against human CFPAC-1 cells assessed as inhibition of cell proliferation incubated for 72 hrs by SRB assay; type: functional, cell-based; details: CFPAC-1, 72 h
# PaTu 8988t [9] = assay: Antiproliferative activity against human PaTu 8988t cells assessed as inhibition of cell proliferation incubated for 72 hrs by SRB assay; type: functional, cell-based
# Panc02 [10] = assay: Antiproliferative activity against mouse Panc02 cells assessed as inhibition of cell proliferation incubated for 72 hrs by SRB assay; type: functional, cell-based; details: Panc02, 72 h
# CFPAC-1 [11] = assay: Inhibition of autophagy at later stage in human CFPAC-1 cells assessed as increase in LC3-II/LC3-I ratio at 10 to 1000 nM incubated for 24 hrs by Western blot analysis; type: functional, cell-based; details: dose 10-1000 nM
# CFPAC-1 [12] = assay: Downregulation of CDK4 expression level in human CFPAC-1 cells incubated for 24 hrs by Western blot analysis; type: functional, cell-based; details: dose 10-1000 nM
# CFPAC-1 [13] = assay: Downregulation of cyclin D1 expression level in human CFPAC-1 cells incubated for 24 hrs by Western blot analysis; type: functional, cell-based; details: dose 10-1000 nM
# CFPAC-1 [14] = assay: Effect on beclin-1 level in human CFPAC-1 cells at 10 to 1000 nM incubated for 24 hrs by Western blot analysis; type: functional, cell-based; details: dose 10-1000 nM
# CFPAC-1 [15] = assay: Inhibition of autophagy at later stage in human CFPAC-1 cells assessed as increase in LC3-II/LC3-I ratio at 1 uM incubated for 24 hrs in presence of chloroquine by Western blot analysis; type: functional, cell-based
# [16] = Metabolic stability in human liver microsome assessed as half life; type: ADME; details: liver microsomes
# [17] = Metabolic stability in human liver microsome assessed as intrinsic clearance; type: ADME; details: liver microsomes, read-out: CLH
# [18] = Metabolic stability in human liver microsome assessed as hepatic clearance; type: ADME; details: microsomes
# [19] = Metabolic stability in mouse liver microsome assessed as half life; type: ADME; details: liver microsomes
# [20] = Metabolic stability in mouse liver microsome assessed as intrinsic clearance; type: ADME; details: liver microsomes, read-out: CLH
# [21] = Metabolic stability in mouse liver microsome assessed as hepatic clearance; type: ADME; details: microsomes
# [22] = Aqueous solubility of the compound at 1 to 2 mg measured after 24 hrs by HPLC-MS analysis; type: physicochemical; details: aqueous (not further specified), dose 1-2 mg
# CFPAC-1 [23] = assay: Induction of cell cycle arrest in human CFPAC-1 cells assessed as accumulation at G1 phase at 10 nM incubated for 24 hrs by flow cytometry (reference value: 57.6 %); type: functional
# CFPAC-1 [24] = assay: Induction of cell cycle arrest in human CFPAC-1 cells assessed as accumulation at S phase at 10 nM incubated for 24 hrs by flow cytometry (reference value: 28.5 %); type: functional
# CFPAC-1 [25] = assay: Induction of cell cycle arrest in human CFPAC-1 cells assessed as accumulation at G2 phase at 10 nM incubated for 24 hrs by flow cytometry (reference value: 11 %); type: functional
# CFPAC-1 [26] = assay: Induction of cell cycle arrest in human CFPAC-1 cells assessed as accumulation at G1 phase at 100 nM incubated for 24 hrs by flow cytometry (reference value: 57.6 %); type: functional
# CFPAC-1 [27] = assay: Induction of cell cycle arrest in human CFPAC-1 cells assessed as accumulation at S phase at 100 nM incubated for 24 hrs by flow cytometry (reference value: 28.5 %); type: functional
# CFPAC-1 [28] = assay: Induction of cell cycle arrest in human CFPAC-1 cells assessed as accumulation at G2 phase at 100 nM incubated for 24 hrs by flow cytometry (reference value: 11 %); type: functional
# CFPAC-1 [29] = assay: Induction of cell cycle arrest in human CFPAC-1 cells assessed as accumulation at G1 phase at 1000 nM incubated for 24 hrs by flow cytometry (reference value: 57.6 %); type: functional
# CFPAC-1 [30] = assay: Induction of cell cycle arrest in human CFPAC-1 cells assessed as accumulation at S phase at 1000 nM incubated for 24 hrs by flow cytometry (reference value: 28.5 %); type: functional
# CFPAC-1 [31] = assay: Induction of cell cycle arrest in human CFPAC-1 cells assessed as accumulation at G2 phase at 1000 nM incubated for 24 hrs by flow cytometry (reference value: 11 %); type: functional
# CFPAC-1 [32] = assay: Induction of apoptosis in human CFPAC-1 cells assessed as viable cells at 1 uM incubated for 24 hrs by annexin V-FITC/PI staining based flow cytometry (reference value: 92.9 %); type: functional; details: read-out: Activity
# CFPAC-1 [33] = assay: Induction of apoptosis in human CFPAC-1 cells assessed as early apoptotic cells at 1 uM incubated for 24 hrs by annexin V-FITC/PI staining based flow cytometry (reference value: 2.93 %); type: functional
# CFPAC-1 [34] = assay: Induction of apoptosis in human CFPAC-1 cells assessed as late apoptotic cells at 1 uM incubated for 24 hrs by annexin V-FITC/PI staining based flow cytometry (reference value: 3.88 %); type: functional
# CFPAC-1 [35] = assay: Induction of apoptosis in human CFPAC-1 cells assessed as necrotic cells at 1 uM incubated for 24 hrs by annexin V-FITC/PI staining based flow cytometry (reference value: 0.27 %); type: functional
# CFPAC-1 [36] = assay: Induction of apoptosis in human CFPAC-1 cells assessed as viable cells at 10 uM incubated for 24 hrs by annexin V-FITC/PI staining based flow cytometry (reference value: 92.9 %); type: functional; details: read-out: Activity
# CFPAC-1 [37] = assay: Induction of apoptosis in human CFPAC-1 cells assessed as early apoptotic cells at 10 uM incubated for 24 hrs by annexin V-FITC/PI staining based flow cytometry (reference value: 2.93 %); type: functional
# CFPAC-1 [38] = assay: Induction of apoptosis in human CFPAC-1 cells assessed as late apoptotic cells at 10 uM incubated for 24 hrs by annexin V-FITC/PI staining based flow cytometry (reference value: 3.88 %); type: functional
# CFPAC-1 [39] = assay: Induction of apoptosis in human CFPAC-1 cells assessed as necrotic cells at 10 uM incubated for 24 hrs by annexin V-FITC/PI staining based flow cytometry (reference value: 0.27 %); type: functional
# Panc02 [40] = assay: Antitumor activity against […] Panc02 cells xenografted in C57BL/6 mouse assessed as tumor growth inhibition at 10 mg/kg, ip administered every two days for 20 days by electronic caliper method relative to control; type: functional; details: Panc02, 480 h, time 20 day, read-out: TGI
# [41] = Toxicity in C57BL/6 mouse xenografted with […] cells assessed as drug tolerance at 10 mg/kg, ip administered every two days for 20 days; type: organism-based; details: in vivo, 480 h, time 20 day
# [42] = Toxicity in C57BL/6 mouse xenografted with […] cells assessed as body weight loss at 10 mg/kg, ip administered every two days for 20 days; type: organism-based; details: in vivo, 480 h, time 20 day
compound,measurement,setting,value
COc1cc2c(OCc3cn([C@H]4O[C@@H](C)[C@H](OC(C)=O)[C@@H](OC(C)=O)[C@H]4OC(C)=O)nn3)c3c(c(-c4ccc5c(c4)OCO5)c2cc1OC)C(=O)OC3,"inhibition at 72 h, 1 µM",[1],21.6%
same,inhibition at 1 µM,MIA PaCa-2 [2],83.7%
same,inhibition at 1 µM,CFPAC-1 [3],65.9%
same,inhibition at 1 µM,PaTu 8988t [4],72.5%
same,inhibition at 1 µM,Panc02 [5],76.3%
same,IC50 at 72 h,[6],1230 nM
same,IC50,MIA PaCa-2 [7],248 nM
same,IC50,CFPAC-1 [8],97 nM
same,IC50,PaTu 8988t [9],163 nM
same,IC50,Panc02 [10],270 nM
COc1cc2c(N)c3c(c(-c4ccc5c(c4)OCO5)c2cc1OC)C(=O)OC3 [listing 1 of 2 here],inhibition,CFPAC-1 [11],Active
same,Activity,CFPAC-1 [12],Dose-Dependent Effect
same,Activity,CFPAC-1 [13],Dose-Dependent Effect
same,Activity,CFPAC-1 [14],inactive
same,inhibition,CFPAC-1 [15],Active
COc1cc2c(N)c3c(c(-c4ccc5c(c4)OCO5)c2cc1OC)C(=O)OC3 [listing 2 of 2 here],"inhibition at 72 h, 1 µM",[1],34.4%
same,inhibition at 1 µM,MIA PaCa-2 [2],91%
same,inhibition at 1 µM,CFPAC-1 [3],78.6%
same,inhibition at 1 µM,PaTu 8988t [4],89.9%
same,inhibition at 1 µM,Panc02 [5],90%
same,IC50 at 72 h,[6],487 nM
same,IC50,MIA PaCa-2 [7],11 nM
same,IC50,CFPAC-1 [8],3 nM
same,IC50,PaTu 8988t [9],37 nM
same,IC50,Panc02 [10],19 nM
same,half-life,[16],88.7 min
same,microsomal CLint,[17],15.6 µL/min/mg
same,CLH,[18],9.6 mL/min/kg
same,half-life,[19],28.5 min
same,microsomal CLint,[20],48.7 µL/min/mg
same,CLH,[21],61.3 mL/min/kg
same,solubility at 24 h,[22],0.028 µg/mL
same,Activity,CFPAC-1 [23],74.3%
same,Activity,CFPAC-1 [24],15.6%
same,Activity,CFPAC-1 [25],8%
same,Activity,CFPAC-1 [26],80.9%
same,Activity,CFPAC-1 [27],12.7%
same,Activity,CFPAC-1 [28],3.61%
same,Activity,CFPAC-1 [29],83.8%
same,Activity,CFPAC-1 [30],10.3%
same,Activity,CFPAC-1 [31],3.66%
same,viability at 1 µM,CFPAC-1 [32],84.8%
same,Activity,CFPAC-1 [33],2.91%
same,Activity,CFPAC-1 [34],11.9%
same,Activity,CFPAC-1 [35],0.4%
same,viability at 10 µM,CFPAC-1 [36],86.1%
same,Activity,CFPAC-1 [37],2.21%
same,Activity,CFPAC-1 [38],11%
same,Activity,CFPAC-1 [39],0.69%
same,inhibition in vivo at 10 mg/kg,Panc02 [40],44.7%
same,Activity,[41],Non-Toxic
same,Activity,[42],Non-Toxic
COc1cc2c(NC(=O)OC(C)(C)C)c3c(c(-c4ccc5c(c4)OCO5)c2cc1OC)C(=O)OC3,"inhibition at 72 h, 1 µM",[1],9.56%
same,inhibition at 1 µM,MIA PaCa-2 [2],52.5%
same,inhibition at 1 µM,CFPAC-1 [3],70.5%
same,inhibition at 1 µM,PaTu 8988t [4],72%
same,inhibition at 1 µM,Panc02 [5],78.1%
same,IC50 at 72 h,[6],5120 nM
same,IC50,MIA PaCa-2 [7],161 nM
same,IC50,CFPAC-1 [8],37 nM
same,IC50,PaTu 8988t [9],88 nM
same,IC50,Panc02 [10],261 nM
COc1cc2c(N)c3c(c(-c4ccc5c(c4)OCO5)c2cc1OC)C(=O)OC3.Cl,solubility at 24 h,[22],0.055 µg/mL
CNc1c2c(c(-c3ccc4c(c3)OCO4)c3cc(OC)c(OC)cc13)C(=O)OC2,"inhibition at 72 h, 1 µM",[1],35.5%
same,inhibition at 1 µM,MIA PaCa-2 [2],92.3%
same,inhibition at 1 µM,CFPAC-1 [3],82.1%
same,inhibition at 1 µM,PaTu 8988t [4],92%
same,inhibition at 1 µM,Panc02 [5],91.4%
COC(=O)CNc1c2c(c(-c3ccc4c(c3)OCO4)c3cc(OC)c(OC)cc13)C(=O)OC2,"inhibition at 72 h, 1 µM",[1],10.8%
same,inhibition at 1 µM,MIA PaCa-2 [2],10.2%
same,inhibition at 1 µM,CFPAC-1 [3],48.4%
same,inhibition at 1 µM,PaTu 8988t [4],85.2%
same,inhibition at 1 µM,Panc02 [5],42%
COc1cc2c(OCCOCc3cn([C@H]4O[C@@H](C)[C@H](OC(C)=O)[C@@H](OC(C)=O)[C@H]4OC(C)=O)nn3)c3c(c(-c4ccc5c(c4)OCO5)c2cc1OC)C(=O)OC3,"inhibition at 72 h, 1 µM",[1],16.4%
same,inhibition at 1 µM,MIA PaCa-2 [2],72.4%
same,inhibition at 1 µM,CFPAC-1 [3],66.7%
same,inhibition at 1 µM,PaTu 8988t [4],86.5%
same,inhibition at 1 µM,Panc02 [5],53.4%
same,IC50 at 72 h,[6],1040 nM
same,IC50,MIA PaCa-2 [7],756 nM
same,IC50,CFPAC-1 [8],50 nM
same,IC50,PaTu 8988t [9],766 nM
same,IC50,Panc02 [10],216 nM
